Molecules are shown by their SMILES. pEC50, pIC50: −log10 of the molar value.

Format in all cases: functional, tissue-based
Holding throughout (conditions): Hippocampus

Experiment [1] can be described thus: Agonistic activity against phospholipase D (PLD) was determined in adult rat hippocampal slices.
A short description of experiment [2]: Antagonistic activity against phospholipase D (PLD) was determined in adult rat hippocampal slices.
The nature of experiment [3]: Antagonistic activity against phospholipase C (PLC) was determined in adult rat hippocampal slices.

Regarding `CC(N)(C(=O)O)c1ccc(C(=O)O)cc1` (stereo unspecified), the pEC50 in experiment [1] was 3.96. For the same compound, the pIC50 in experiment [2] is 3.28.
The compound `N[C@@]1(C(=O)O)CC[C@@H](C(=O)O)C1` gave a pEC50 in experiment [1] of 4.52.
As to `N[C@H](C(=O)O)c1cc(O)cc(O)c1`, the pIC50 in experiment [2] is 4.15.
`NC(C(=O)O)[C@@H]1[C@H](C(=O)O)[C@H]1c1ccccc1` (stereo partly specified): the pIC50 in experiment [3] is less than 3.52; in experiment [2] it was 7.60.

As a reminder, the pEC50 is the negative decadic logarithm of the EC50, by convention in mol/L. A higher pEC50 goes with a small EC50. As a reminder, the pIC50 is −log10 of the IC50, conventionally taken in molar units. Lower therefore signals a high IC50.

Values taken from ChEMBL document CHEMBL1132307, “(2R,1'S,2'R,3'S)-2-(2'-Carboxy-3'-phenylcyclopropyl)glycine (PCCG-13), the first potent and selective competitive antagonist of phospholipase D-coupled metabotropic glutamate receptors: asymmetric synthesis and preliminary biological properties” (J Med Chem, 1999).
